Experimental findings from patent US20140057915A1, “KINASE INHIBITORS” (TOPIVERT PHARMA LIMITED, priority 2012, published 2014) are described below.

The structures appear in SMILES notation. Read-outs that look alike come from different tables or passages of the source.

The target in one series is p38 MAPKγ (Homo sapiens, UniProt P53778). Put plainly: Enzyme binding assay (Kinomescan). As to conditions: read-out: % Inhibition of kinase binding at 500 nM, p38 MAPKγ. Here is the method: (§1) Enzyme Binding Assays (Kinomescan)
(§2) These assays were conducted by DiscoverX (formerly Ambit; San Diego, Calif.). The percentage inhibition produced by incubation with a test compound is calculated relative to the non-inhibited control.

In a further series the target is p38 MAPKα (Homo sapiens, UniProt Q16539). Put plainly: Enzyme binding assay (Kinomescan). As to conditions: read-out: % Inhibition of kinase binding at 500 nM, p38 MAPKα. Here is the method: as §1
(§3) The kinase enzyme binding activities of compounds disclosed herein were determined using a proprietary assay which measures active site-directed competition binding to an immobilized ligand (Fabian, M. A. et al., Nature Biotechnol., 2005, 23:329-336). These assays were conducted by DiscoverX (formerly Ambit; San Diego, Calif.). The percentage inhibition produced by incubation with a test compound is calculated relative to the non-inhibited control.

The target in the next series is GSK3α (Homo sapiens, UniProt P49840). Put plainly: Enzyme binding assay (Kinomescan). As to conditions: read-out: % Inhibition of kinase binding at 500 nM, GSK3α. As for the experimental part:
as §2

For another series, the target named is cSrc (Homo sapiens, UniProt P12931). Put plainly: Enzyme binding assay (Kinomescan). The settings on record: read-out: % Inhibition of kinase binding at 500 nM, cSrc. Here is the method:
as §2

For the next series, the target named is B-Raf (V600e) (Homo sapiens, UniProt P15056, V600E). Description: Enzyme binding assay (KINOMEscan). Here is the method: as §3
A further series concerns SCID mice. Description: Adoptive transfer in mice. The settings on record: mouse. As for the experimental part: (D) Adoptive Transfer in Mice
On Study day 0, female Balb/C mice are terminated and spleens obtained for CD45RB^high cell isolation (Using SCID IBD cell Separation protocol). Approximately 4×10^5 cells/mL CD45RB^high cells are then injected IP (100 μL/mouse) into female SCID animals. On study day 14, mice are weighed and randomized into treatment groups based on body weight. On Day 21, compounds are administered BID, via oral gavage, in a peanut oil vehicle at the dose levels outlined below and a dose volume of 5 mL/kg. Treatment continues until study day 42, at which point the animals are necropsied 4 hours after am administration. The colon length and weight is recorded and used as a secondary endpoint in the study as a measurement of colon oedema. The colon is then divided into six cross-sections, four of which are used for histopathology scoring (primary endpoint) and two are homogenised for cytokine analysis. Data shown is the % inhibition of the induction window between naïve animals and vehicle animals, where higher inhibition implies closer to the non-diseased, naïve, phenotype.

The target in the next series is CYP2C9 (Homo sapiens, UniProt P11712). Put plainly: Time-dependent inhibition of cytochromes (CYP450 TDI). It counts as in vitro ADME. As to conditions: human, pooled human liver microsomes, pH 7.4, probe diclofenac, CYP2C9 (diclofenac probe), 15 μM, human hepatic microsomes, read-out: 15 μM % Inh. As for the experimental part:
(§4) (ii) Time-Dependent Inhibition of Cytochromes
(§5) CYP450 time-dependent inhibition (TDI) assays were performed with test compound at six test concentrations, 0.062 μM to 15 μM (n=2). The test compounds was pre-incubated for 30 minutes with pooled human hepatic microsomes in 0.1 M Tris buffer, pH 7.4, at 37° C. in the presence of cofactor NADPH. A parallel series of incubations (n=2) were prepared with no pre-incubation. Probe substrates were then added (with additional cofactor) and further incubated for the times specified. Concentrations of probe substrates used in the incubations have been optimised to maintain first order reaction conditions.
(§6) Reactions were terminated with acetonitrile containing analytical internal standard (carbamazepine), samples then centrifuged to remove microsomal protein and analysed using optimised LC/MS-MS conditions. The MS data were normalised to internal standard and compared to the appropriate solvent controls to determine the amount of metabolite formed from the probe substrate relative to the “uninhibited” controls. The results are quoted as % inhibition. These values were then plotted using the sigmoidal dose response equation (shown below) and IC50's calculated.
(§7) Y=bottom+((top-bottom)/1+10̂((Log IC50−X)*Hill slope)) • X=Log concentration • Y=response
(§8) Variation in probe turnover between plate wells means that inhibition values recorded below 10-15% may not be significant.

The target in the next series is CYP3A4 (Homo sapiens, UniProt P08684). The series is described as above. In kind it is in vitro ADME. As to conditions: human, pooled human liver microsomes, pH 7.4, probe midazolam, CYP3A4 (midazolam probe), 15 μM, human hepatic microsomes, read-out: 15 μM % Inh. Here is the method:
as §4, §5, §6, §7, §8
For orientation: Liver microsomes are a subcellular fraction often used to study metabolism.

Series [1] addresses CYP450 (Homo sapiens, UniProt P08684). The series is described as above. It counts as in vitro ADME. The settings on record: CYP3A4 (midazolam probe), human hepatic microsomes. As for the experimental part:
as §4, §5, §6, §7, §8

Series [2] has as its target CYP450 (Homo sapiens, UniProt P11712). The series is described as above. The settings on record: CYP2C9 (diclofenac probe), human hepatic microsomes. It counts as in vitro ADME. As for the experimental part: as §4, §5, §6, §7, §8
Series [3] deals with 71 receptors and 26 enzymes. Put plainly: Diversity Profile (Cerep). In kind it is binding. The settings on record: 300 nM. As for the experimental part:
Studies were conducted by Cerep (Celle-Lévescault, France) to investigate the binding of the compound of Example 77 to a diverse selection of receptors and to investigate either the inhibition or activation of a selection of enzymes (the “Diversity Profile” comprising a total of 71 receptors and 26 enzymes).

In series [4] the test system is Salmonella typhimurium, strains TA98 and TA100. Description: Mutagenicity assessment (bacterial reverse mutation screen). The settings on record: presence or absence of S-9 mix; up to 5000 μg/plate. Here is the method: Mutagenicity Assessment (Bacterial Reverse Mutation Screen)
Studies were conducted by Sequani (Ledbury, Herefordshire, UK) to assess the compound of Example 77 in vitro for its ability to induce mutations in two histidine dependent auxotrophic mutants of Salmonella typhimurium, strains TA98 and TA100.
The mutation screen was conducted using the plate incorporation method and was performed in both the presence and absence of S-9 mix (a liver post-mitochondrial fraction derived from the livers of Aroclor 1254 treated rats). The bacteria were exposed to the compound of Example 77 dissolved in dimethylsulphoxide, which solvent was also used as the negative control. The dose levels used were 0.32, 1.6, 8, 40, 200, 1000 or 5000 μg/plate.

Sequence of CYP3A4 (P08684 whole entry): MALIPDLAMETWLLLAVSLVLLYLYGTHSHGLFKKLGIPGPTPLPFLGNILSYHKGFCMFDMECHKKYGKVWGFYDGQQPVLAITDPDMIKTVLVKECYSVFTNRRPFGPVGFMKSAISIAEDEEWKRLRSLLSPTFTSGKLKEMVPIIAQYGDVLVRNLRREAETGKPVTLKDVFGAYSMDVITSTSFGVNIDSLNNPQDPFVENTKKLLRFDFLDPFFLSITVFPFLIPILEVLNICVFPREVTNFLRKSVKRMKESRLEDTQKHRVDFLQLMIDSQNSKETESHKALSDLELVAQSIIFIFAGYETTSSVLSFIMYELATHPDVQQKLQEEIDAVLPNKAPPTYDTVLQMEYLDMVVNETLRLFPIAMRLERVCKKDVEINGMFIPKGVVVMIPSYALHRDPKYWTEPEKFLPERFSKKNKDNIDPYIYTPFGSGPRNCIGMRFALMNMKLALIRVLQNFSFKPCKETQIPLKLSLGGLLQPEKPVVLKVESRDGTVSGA
Sequence of CYP450 (Homo sapiens, UniProt P08684) (P08684 whole entry): as above
Sequence of CYP2C9 (P11712 whole entry): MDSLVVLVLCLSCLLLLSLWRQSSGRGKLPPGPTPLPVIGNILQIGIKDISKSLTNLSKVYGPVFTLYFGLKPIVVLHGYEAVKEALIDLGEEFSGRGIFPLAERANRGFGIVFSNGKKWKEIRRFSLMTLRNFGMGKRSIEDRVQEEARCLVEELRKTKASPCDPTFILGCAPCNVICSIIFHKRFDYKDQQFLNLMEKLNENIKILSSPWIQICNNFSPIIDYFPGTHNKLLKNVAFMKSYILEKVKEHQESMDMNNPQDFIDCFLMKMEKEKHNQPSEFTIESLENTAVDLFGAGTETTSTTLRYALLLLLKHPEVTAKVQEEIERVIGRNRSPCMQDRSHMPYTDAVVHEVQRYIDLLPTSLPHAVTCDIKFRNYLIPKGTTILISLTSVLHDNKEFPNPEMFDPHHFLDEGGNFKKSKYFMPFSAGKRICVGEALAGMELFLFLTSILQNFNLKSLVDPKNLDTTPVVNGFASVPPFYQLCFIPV
Sequence of CYP450 (Homo sapiens, UniProt P11712) (P11712 whole entry): as above
Sequence of cSrc (P12931 whole entry): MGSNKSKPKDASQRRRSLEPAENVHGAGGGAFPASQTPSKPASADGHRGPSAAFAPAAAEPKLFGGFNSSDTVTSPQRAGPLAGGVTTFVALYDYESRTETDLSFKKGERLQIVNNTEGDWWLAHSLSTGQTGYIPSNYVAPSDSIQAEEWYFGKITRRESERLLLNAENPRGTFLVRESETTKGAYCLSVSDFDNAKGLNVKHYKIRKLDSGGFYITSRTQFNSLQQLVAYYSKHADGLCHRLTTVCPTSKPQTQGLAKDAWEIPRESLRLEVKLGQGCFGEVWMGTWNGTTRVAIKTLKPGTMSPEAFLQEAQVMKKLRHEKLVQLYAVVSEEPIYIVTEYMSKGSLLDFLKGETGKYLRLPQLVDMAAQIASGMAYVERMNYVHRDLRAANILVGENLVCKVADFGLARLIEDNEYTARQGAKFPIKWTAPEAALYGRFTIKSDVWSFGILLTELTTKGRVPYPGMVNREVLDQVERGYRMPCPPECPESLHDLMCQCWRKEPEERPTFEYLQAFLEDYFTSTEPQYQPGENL
Sequence of B-Raf (V600e) (P15056 whole entry V600E): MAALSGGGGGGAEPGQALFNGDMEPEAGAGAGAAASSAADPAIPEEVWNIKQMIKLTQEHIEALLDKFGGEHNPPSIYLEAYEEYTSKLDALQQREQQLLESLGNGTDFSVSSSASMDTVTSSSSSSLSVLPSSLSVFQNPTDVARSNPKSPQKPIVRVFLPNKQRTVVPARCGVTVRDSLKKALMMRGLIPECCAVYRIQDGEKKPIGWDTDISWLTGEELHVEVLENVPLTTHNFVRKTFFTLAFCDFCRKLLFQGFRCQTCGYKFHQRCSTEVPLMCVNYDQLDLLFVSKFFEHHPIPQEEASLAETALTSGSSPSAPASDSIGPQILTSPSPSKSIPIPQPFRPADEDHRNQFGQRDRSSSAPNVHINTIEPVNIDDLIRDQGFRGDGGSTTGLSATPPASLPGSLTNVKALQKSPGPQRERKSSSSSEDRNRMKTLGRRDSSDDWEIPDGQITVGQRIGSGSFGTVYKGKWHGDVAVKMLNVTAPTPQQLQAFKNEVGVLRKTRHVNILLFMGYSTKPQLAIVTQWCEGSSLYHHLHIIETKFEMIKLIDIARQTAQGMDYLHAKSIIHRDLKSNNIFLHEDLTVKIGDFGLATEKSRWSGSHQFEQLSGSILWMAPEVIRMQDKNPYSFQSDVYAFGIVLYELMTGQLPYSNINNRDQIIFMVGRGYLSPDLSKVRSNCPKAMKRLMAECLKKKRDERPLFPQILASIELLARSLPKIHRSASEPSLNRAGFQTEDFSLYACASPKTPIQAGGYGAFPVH
Sequence of p38 MAPKα (Q16539 whole entry): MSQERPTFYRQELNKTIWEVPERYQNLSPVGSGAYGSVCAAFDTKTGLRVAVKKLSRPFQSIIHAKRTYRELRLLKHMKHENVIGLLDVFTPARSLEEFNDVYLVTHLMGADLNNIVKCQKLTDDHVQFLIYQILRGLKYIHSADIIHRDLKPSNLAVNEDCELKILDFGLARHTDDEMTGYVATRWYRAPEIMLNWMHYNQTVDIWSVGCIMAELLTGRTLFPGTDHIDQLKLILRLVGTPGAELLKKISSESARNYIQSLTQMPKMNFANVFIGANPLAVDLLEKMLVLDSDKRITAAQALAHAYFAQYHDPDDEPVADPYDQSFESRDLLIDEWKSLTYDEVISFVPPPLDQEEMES
Sequence of GSK3α (P49840 whole entry): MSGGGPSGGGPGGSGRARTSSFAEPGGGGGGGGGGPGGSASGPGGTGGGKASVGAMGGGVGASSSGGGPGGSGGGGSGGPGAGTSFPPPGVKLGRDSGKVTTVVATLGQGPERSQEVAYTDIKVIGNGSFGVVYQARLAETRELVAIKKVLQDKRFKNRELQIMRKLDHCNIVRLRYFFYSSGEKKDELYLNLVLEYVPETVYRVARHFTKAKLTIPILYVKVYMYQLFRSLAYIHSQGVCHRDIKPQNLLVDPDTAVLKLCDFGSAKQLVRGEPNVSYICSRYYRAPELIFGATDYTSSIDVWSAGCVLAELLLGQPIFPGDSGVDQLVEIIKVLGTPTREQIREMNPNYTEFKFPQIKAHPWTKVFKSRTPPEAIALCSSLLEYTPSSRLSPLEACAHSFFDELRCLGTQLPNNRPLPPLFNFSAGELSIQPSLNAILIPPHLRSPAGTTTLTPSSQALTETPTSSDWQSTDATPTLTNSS
Sequence of p38 MAPKγ (P53778 whole entry): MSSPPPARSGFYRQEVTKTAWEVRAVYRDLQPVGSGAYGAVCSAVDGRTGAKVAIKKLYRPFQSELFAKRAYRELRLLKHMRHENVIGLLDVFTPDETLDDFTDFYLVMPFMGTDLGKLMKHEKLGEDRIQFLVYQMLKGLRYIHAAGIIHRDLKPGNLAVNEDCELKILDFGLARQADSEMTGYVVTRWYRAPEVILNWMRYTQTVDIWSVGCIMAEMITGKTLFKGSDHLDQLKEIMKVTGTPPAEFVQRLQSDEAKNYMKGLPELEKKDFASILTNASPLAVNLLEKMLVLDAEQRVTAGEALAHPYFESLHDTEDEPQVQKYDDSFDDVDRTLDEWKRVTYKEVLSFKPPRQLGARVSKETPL

Consider `COc1cc(Nc2nccc(Oc3ccc(NC(=O)Nc4cc(C(C)C)nn4-c4ccc(C)cc4)c4ccccc34)n2)cc(C(=O)NCCN2CCOCC2)c1` [Example 8, 3-((4-((4-(3-(3-Isopropyl-1-(p-tolyl)-1H-pyrazol-5-yl)ureido)naphthalen-1-yl)oxy)pyrimidin-2-yl)amino)-5-methoxy-N-(2-morpholinoethyl)benzamide], for which the inhibition at 0.5 µM on p38 MAPKγ was determined as 82%; at p38 MAPKα, 95%; on GSK3α, 19%; on cSrc it was 100%.
In the case of `C#Cc1cc(Nc2nccc(Oc3ccc(NC(=O)Nc4cc(C(C)(C)C)nn4-c4ccc(OC)cc4)c4ccccc34)n2)cc(C(=O)NCCN2CCOCC2)c1` [Example 77, 3-((4-((4-(3-(3-(tert-Butyl)-1-(4-methoxyphenyl)-1H-pyrazol-5-yl)ureido)-naphthalen-1-yl)oxy)pyrimidin-2-yl)amino)-5-ethynyl-N-(2-morpholinoethyl)benzamide], the “effect on the binding of the kinase B-Raf (V600e) to its standard ligand” value on B-Raf (V600e) is “did not have any effect on the binding”. Besides, the “activity in adoptive transfer in vivo model of colonic inflammation” value in the series on SCID mice is listed as “significant activity”. Besides, the inhibition at 15 µM on CYP2C9 (0 min preincubation) was -4%; on CYP2C9 (30 min preincubation), 1%; at CYP3A4 (0 min preincubation), 15%; on CYP3A4 (30 min preincubation), 35%. Further, the IC50 on CYP450 [1] (0 min preincubation), on CYP450 [1] (30 min preincubation), on CYP450 [2] (0 min preincubation) and at CYP450 [2] (30 min preincubation) was over 15 µM in each case. In addition, the “inhibition of control specific binding in the receptor binding assays or enzyme assays” value in series [3] was “less than 25%”. Further, the “revertant colonies (mutagenic effects)” value in series [4] is “no dose-related or statistically significant increases in revertant colonies”.

Broadly, the IC50 is the midpoint of a concentration-inhibition curve. Lower therefore signals greater potency.
